According to patent publication US20190060320A1, “MEDICAL USE OF PHARMACEUTICAL COMBINATION OR COMPOSITION” (Boehringer Ingelheim International GmbH, priority 2016, published 2019):

Experiment: Multicentre, double-blind, placebo-controlled clinical trial of glycaemic and renal effects of linagliptin in patients with type 2 diabetes and albuminuria
Format: in vivo, human
Method: A multicentre, double-blind, placebo-controlled clinical trial investigates glycaemic and renal effects of linagliptin in patients with type 2 diabetes, album inuria and estimated GFR ≥30 ml/min/1.73 m2 (with or without renal function impairment).
A total of 360 patients with type 2 diabetes (HbA1c 6.5-10%) and persistent albuminuria (urinary albumin-to-creatinine ratio [UACR] 30-3000 mg/gCr; i.e. micro- or macro-albuminuria) despite stable background (standard-of-care) of single renin-angiotensin system blockade (ARB or ACE inhibitor) are randomised to either linagliptin 5 mg (n=182) or placebo (n=178) for 24 weeks. Primary glycaemic and key secondary renal surrogate endpoints are HbA1c and UACR change from baseline over 24 weeks, respectively.

SMILES: CC#CCn1c(N2CCC[C@@H](N)C2)nc2c1c(=O)n(Cc1nc(C)c3ccccc3n1)c(=O)n2C [linagliptin, 1-[(4-methyl-quinazolin-2-yl)methyl]-3-methyl-7-(2-butyn-1-yl)-8-(3-(R)-amino-piperidin-1-yl)-xanthine]
- placebo-adjusted gMean for time-weighted average of % change in UCAR from baseline (over 24 weeks, linagliptin 5 mg vs placebo, 95% CI −15.0, 3.0, NS): −6.0%
- gMean for time-weighted average of % change from baseline in UACR (over 24 weeks, linagliptin 5 mg, 95% CI −16.8, −4.7): −11.0%
- difference in the changes from baseline vs. placebo in urinary albumin to creatinine ratio (UACR), subgroup on a background of metformin (post hoc exploratory subgroup analysis, linagliptin on metformin background (and CKD3, eGFR 30-60) compared to patients without metformin): numerically larger difference
- placebo-adjusted mean HbA1c change from baseline (week 24, linagliptin 5 mg vs placebo, 95% CI −0.78, −0.43, p<0.0001): −0.60%
